Measurements: patent US5948816A, “4-substituted-2,7-dideoxy-7-fluoro-2,3-didehydro-sialic acid compounds” (priority 1996, dated 1999)
pIC50: −log10 of the molar value. Counter-ions that a name gives are not always drawn.

Biological target: sialidase (Influenza A virus, UniProt P03468)
Test: Influenza virus sialidase inhibition (free sialic acid released from α 2-3 sialyl-lactose, pH 5.2, 37° C., densitometry)
Format: biochemical, Influenza virus A/PR/8/34
Details: for pIC50: α 2-3 sialyl-lactose substrate, pH 5.2, 37° C., 10 minutes

sialidase, sequence (P03468 whole entry): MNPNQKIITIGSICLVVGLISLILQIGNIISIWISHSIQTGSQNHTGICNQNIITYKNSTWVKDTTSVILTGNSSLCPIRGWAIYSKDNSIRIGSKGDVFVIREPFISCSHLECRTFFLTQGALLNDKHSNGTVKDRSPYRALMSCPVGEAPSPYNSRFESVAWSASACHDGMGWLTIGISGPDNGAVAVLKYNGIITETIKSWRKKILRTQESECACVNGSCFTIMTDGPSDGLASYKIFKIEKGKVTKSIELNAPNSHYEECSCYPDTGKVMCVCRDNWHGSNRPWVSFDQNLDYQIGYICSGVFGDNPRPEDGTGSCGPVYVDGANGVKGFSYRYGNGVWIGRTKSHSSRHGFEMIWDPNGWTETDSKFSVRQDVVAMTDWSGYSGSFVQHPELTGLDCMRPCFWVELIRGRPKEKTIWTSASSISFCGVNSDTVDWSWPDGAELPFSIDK

| SMILES | pIC50 | sialidase inhibitory activity |
| --- | --- | --- |
| CC(=O)N[C@H]1[C@H]([C@H](O)[C@H](O)CO)OC(C(=O)O)=C[C@@H]1N [4-Amino-2,3-didehydrosialic acid, 4-amino-2,3-didehydrosialic acid] | 5.82 | – |
| CC(=O)N[C@H]1[C@H]([C@H](F)[C@H](O)CO)OC(C(=O)O)=C[C@@H]1N [5-Acetamide-4-amino-2,6-anhydro-7-fluoro-3,4,5,7-tetradeoxy-D-glycero-D-galacto-non-2-enonic acid Sodium salt] | 6.30 | very potent |
| CC(=O)N[C@H]1[C@H]([C@H](F)[C@H](O)CO)OC(C(=O)O)=C[C@@H]1O [7-Fluoro-2,3-didehydrosialic acid] | 5.54 | – |
